Source: paper PMC8745342, “In Vitro and In Silico Kinetic Studies of Patented 1,7-diEthyl and 1,7-diMethyl Aminoalkanol Derivatives as New Inhibitors of Acetylcholinesterase” (International Journal of Molecular Sciences, 2021)

Key:
[1] = target: T1, Acetylcholinesterase human (AChE) (Homo sapiens, UniProt P22303); assay: AChE inhibition kinetics, Ellman's method combined with capillary electrophoresis; assay type: biochemical; conditions: for type of AChE inhibition: from Lineweaver-Burk plots, Km and Vmax; for IC50: from activity (%) versus inhibitor concentration plots; for Tilt Angle of Lineweaver-Burk line: acetylthiocholine 0.36–46.00 mM, n = 6; for amount of 4,4-dithio-bis-acid nitrobenzoic (DBAN) product in the presence of inhibitor: 0.66 mM without inhibitors
T1 construct: purchased Sigma-Aldrich (Poznań, Poland)
T1 sequence (P22303 32-614): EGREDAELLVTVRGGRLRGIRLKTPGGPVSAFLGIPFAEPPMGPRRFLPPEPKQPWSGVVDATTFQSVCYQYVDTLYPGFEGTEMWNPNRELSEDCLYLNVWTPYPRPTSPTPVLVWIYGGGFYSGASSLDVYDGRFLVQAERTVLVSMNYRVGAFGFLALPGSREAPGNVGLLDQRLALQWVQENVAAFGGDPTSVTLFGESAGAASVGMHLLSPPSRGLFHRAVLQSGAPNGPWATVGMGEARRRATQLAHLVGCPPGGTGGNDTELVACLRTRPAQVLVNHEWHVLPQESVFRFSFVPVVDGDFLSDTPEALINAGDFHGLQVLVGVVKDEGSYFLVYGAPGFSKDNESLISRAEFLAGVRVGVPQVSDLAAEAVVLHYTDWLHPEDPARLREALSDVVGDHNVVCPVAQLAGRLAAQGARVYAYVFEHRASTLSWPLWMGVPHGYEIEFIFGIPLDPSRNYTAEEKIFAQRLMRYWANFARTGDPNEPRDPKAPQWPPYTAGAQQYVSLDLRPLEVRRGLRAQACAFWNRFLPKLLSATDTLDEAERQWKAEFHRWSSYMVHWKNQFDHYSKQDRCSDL
From the text: In this work, we used the combined Ellman’s method with the capillary electrophoresis method developed by us for the determination of 4,4-dithio-bis-acid nitrobenzoic (DBAN) (main enzyme reaction product) in the presence of acetylthiocholine (ACth), 5-thio-2-nitrobenzoic acid (NTB), 5,5′-dithio-bis-2-nitrobenzoic acid (DTNB), acetylcholinesterase (AChE) and inhibitors (I), (II), (III) and (IV) of acetylcholinesterase. For the development of this method, we optimized the buffer pH, separating background electrolyte (BGE) concentration, wavelength, temperature, and voltage. […] All these separation systems were tested to achieve the best separation parameters, resolution, and analysis time for all components in the reaction mixture. […] Separation was carried out at 15 kV. Each sample was added to the capillary under hydrodynamic injection.
The samples were injected under 5 psi pressure for 3 s. The experiments were performed under constant current conditions (85 μA). […] Before the assay, the capillary was conditioned with 0.1 M NaOH for 10 min at 10 psi and with H2O for 10 min at 10 psi. Then, it was electro conditioned with the running buffer for 20 min at +10 kV and pressure-conditioned with the running buffer for 10 min at 10 psi. Before each injection, the capillary was washed with 1 M NaOH for 2 min, then with H2O for 2 min, and finally with BGE for 2 min. At the end of each working day, the capillary was rinsed for 10 min with 0.1 M NaOH, 10 min with BGE, and 10 min with deionized water at 15 psi. Then, the capillary was exposed to air for 10 min at 20 psi and left empty.
Sample mixtures containing 4,4-dithio-bis-acid nitrobenzoic (DBAN) (main enzyme reaction product) in the presence of acetylthiocholine (ACth), 5-thio-2-nitrobenzoic acid (NTB), 5,5′-dithio-bis-2-nitrobenzoic acid (DTNB), acetylcholinesterase (AChE) and inhibitors (I), (II), (III) and (IV) were introduced automatically by pressure injection (with 2 psi pressure for 5 s on the sample solution). At the day’s end, vials with anode and cathode buffer were emptied and running buffer was filled again at the start of the next day before the analysis.
Acetylcholinesterase activity was determined according to the method by Ellman et al. and according to the procedure described by Rosilene R et al. but slightly modified. […] The tubes containing solutions were preincubated for 2 min at 25 °C. Then, 0.1 mL […] AChE was introduced into tubes 1–9, at an interval of 1 min. All 10 samples were incubated for 3 min at 25 °C. After incubation, the analytical samples were introduced into the capillary.
The inhibition constants (Ki) were calculated from the plotted Lineweaver–Burk curves for the four concentrations of the inhibitors (I), (II), (III) and (IV). The method was based on two steps (Figure 8).

AChE = conditions: model AChE inhibitors; read-out: IC50 (inhibition potency); cited from earlier work
[2] = inhibitor 0.08 mM, acetylthiocholine 0.36 mM
[3] = inhibitor 0.08 mM, acetylthiocholine 0.72 mM
[4] = inhibitor 0.08 mM, acetylthiocholine 1.44 mM
[5] = inhibitor 0.08 mM, acetylthiocholine 2.88 mM
[6] = inhibitor 0.08 mM, acetylthiocholine 5.75 mM
[7] = inhibitor 0.08 mM, acetylthiocholine 11.50 mM
[8] = inhibitor 0.08 mM, acetylthiocholine 23.00 mM
[9] = inhibitor 0.08 mM, acetylthiocholine 34.50 mM
[10] = inhibitor 0.08 mM, acetylthiocholine 46.00 mM

SMILES	type of AChE inhibition [1]	IC50 [1]	Vmax ([1]; inhibitor 0.01 mM)	Tilt Angle of Lineweaver-Burk line ([1]; inhibitor 0.01 mM)	Vmax ([1]; inhibitor 0.02 mM)	Vmax ([1]; inhibitor 0.04 mM)	Tilt Angle of Lineweaver-Burk line ([1]; inhibitor 0.04 mM)	Vmax ([1]; inhibitor 0.06 mM)	Tilt Angle of Lineweaver-Burk line ([1]; inhibitor 0.06 mM)	Vmax ([1]; inhibitor 0.08 mM)	1/Vo, mean [1, 2]	Peak area of product (4,4-dithio-bis-acid nitrobenzoic), mean [1, 2]	V0 (reaction speed), mean [1, 2]	1/Vo, mean [1, 3]	Peak area of product (4,4-dithio-bis-acid nitrobenzoic), mean [1, 3]	V0 (reaction speed), mean [1, 3]	1/Vo, mean [1, 4]	Peak area of product (4,4-dithio-bis-acid nitrobenzoic), mean [1, 4]	V0 (reaction speed), mean [1, 4]	amount of 4,4-dithio-bis-acid nitrobenzoic (DBAN) product in the presence of inhibitor [1, 4]	other results
CCC12C(=O)C(CC)(C(c3ccccc3)=C1c1ccccc1)C1C(=O)N(CC(O)CNC(C)C)C(=O)C12 (stereo not shown) [Compound (I)]	competitive	37 ± 1 µM	0.63 ± 0.02 mM/min	59.52 ± 0.04 °	0.62 ± 0.03 mM/min	0.64 ± 0.01 mM/min	65.42 ± 0.05 °	0.65 ± 0.01 mM/min	69.66 ± 0.05 °	0.65 ± 0.01 mM/min	9.30 min/mM	49766	0.11 mM/min	5.46 min/mM	91263	0.18 mM/min	3.55 min/mM	128810	0.28 mM/min	0.52 mM	1/Vo, mean [1, 5]: 2.30 min/mM; Peak area of product (4,4-dithio-bis-acid nitrobenzoic), mean [1, 5]: 171159; V0 (reaction speed), mean [1, 5]: 0.43 mM/min; 1/Vo, mean [1, 6]: 2.05 min/mM; Peak area of product (4,4-dithio-bis-acid nitrobenzoic), mean [1, 6]: 207149; V0 (reaction speed), mean [1, 6]: 0.49 mM/min; 1/Vo, mean [1, 7]: 1.80 min/mM; Peak area of product (4,4-dithio-bis-acid nitrobenzoic), mean [1, 7]: 231267; V0 (reaction speed), mean [1, 7]: 0.56 mM/min; 1/Vo, mean [1, 8]: 1.70 min/mM; Peak area of product (4,4-dithio-bis-acid nitrobenzoic), mean [1, 8]: 247792; V0 (reaction speed), mean [1, 8]: 0.59 mM/min; 1/Vo, mean [1, 9]: 1.55 min/mM; Peak area of product (4,4-dithio-bis-acid nitrobenzoic), mean [1, 9]: 250475; V0 (reaction speed), mean [1, 9]: 0.65 mM/min; 1/Vo, mean [1, 10]: 1.50 min/mM; Peak area of product (4,4-dithio-bis-acid nitrobenzoic), mean [1, 10]: 251643; V0 (reaction speed), mean [1, 10]: 0.67 mM/min; Tilt Angle of Lineweaver-Burk line ([1]; inhibitor 0.08 mM): 70.32 ± 0.03 °
CCC12C(=O)C(CC)(C(c3ccccc3)=C1c1ccccc1)C1C(=O)N(CC(O)CN(C)C)C(=O)C12 (stereo not shown) [Compound (II)]	competitive	39 ± 1 µM	0.62 ± 0.03 mM/min	59.46 ± 0.03 °	0.63 ± 0.02 mM/min	0.65 ± 0.01 mM/min	65.19 ± 0.06 °	0.65 ± 0.01 mM/min	69.02 ± 0.05 °	0.65 ± 0.01 mM/min	9.19 min/mM	56086	0.11 mM/min	5.40 min/mM	102853	0.19 mM/min	3.50 min/mM	145167	0.29 mM/min	0.58 mM	Tilt Angle of Lineweaver-Burk line ([1]; inhibitor 0.02 mM): 59.60 ± 0.08 °; 1/Vo, mean [1, 5]: 2.30 min/mM; Peak area of product (4,4-dithio-bis-acid nitrobenzoic), mean [1, 5]: 192894; V0 (reaction speed), mean [1, 5]: 0.43 mM/min; 1/Vo, mean [1, 6]: 2.05 min/mM; Peak area of product (4,4-dithio-bis-acid nitrobenzoic), mean [1, 6]: 233453; V0 (reaction speed), mean [1, 6]: 0.49 mM/min; 1/Vo, mean [1, 7]: 1.80 min/mM; Peak area of product (4,4-dithio-bis-acid nitrobenzoic), mean [1, 7]: 260635; V0 (reaction speed), mean [1, 7]: 0.56 mM/min; 1/Vo, mean [1, 8]: 1.70 min/mM; Peak area of product (4,4-dithio-bis-acid nitrobenzoic), mean [1, 8]: 279258; V0 (reaction speed), mean [1, 8]: 0.59 mM/min; 1/Vo, mean [1, 9]: 1.55 min/mM; Peak area of product (4,4-dithio-bis-acid nitrobenzoic), mean [1, 9]: 282281; V0 (reaction speed), mean [1, 9]: 0.65 mM/min; 1/Vo, mean [1, 10]: 1.50 min/mM; Peak area of product (4,4-dithio-bis-acid nitrobenzoic), mean [1, 10]: 283597; V0 (reaction speed), mean [1, 10]: 0.67 mM/min; Tilt Angle of Lineweaver-Burk line ([1]; inhibitor 0.08 mM): 70.02 ± 0.04 °
CC(C)NCC(O)CN1C(=O)C2C(C1=O)C1(C)C(=O)C2(C)C(c2ccccc2)=C1c1ccccc1 (stereo not shown) [Compound (III)]	competitive	33 ± 1 µM	0.63 ± 0.01 mM/min	60.01 ± 0.03 °	0.63 ± 0.02 mM/min	0.64 ± 0.03 mM/min	67.38 ± 0.04 °	0.64 ± 0.03 mM/min	70.42 ± 0.02 °	0.63 ± 0.02 mM/min	10.1 min/mM	39497	0.10 mM/min	5.70 min/mM	72431	0.18 mM/min	3.55 min/mM	102230	0.28 mM/min	0.41 mM	Tilt Angle of Lineweaver-Burk line ([1]; inhibitor 0.02 mM): 62.28 ± 0.03 °; 1/Vo, mean [1, 5]: 2.40 min/mM; Peak area of product (4,4-dithio-bis-acid nitrobenzoic), mean [1, 5]: 135840; V0 (reaction speed), mean [1, 5]: 0.42 mM/min; 1/Vo, mean [1, 6]: 2.05 min/mM; Peak area of product (4,4-dithio-bis-acid nitrobenzoic), mean [1, 6]: 164404; V0 (reaction speed), mean [1, 6]: 0.49 mM/min; 1/Vo, mean [1, 7]: 1.80 min/mM; Peak area of product (4,4-dithio-bis-acid nitrobenzoic), mean [1, 7]: 183545; V0 (reaction speed), mean [1, 7]: 0.56 mM/min; 1/Vo, mean [1, 8]: 1.70 min/mM; Peak area of product (4,4-dithio-bis-acid nitrobenzoic), mean [1, 8]: 196660; V0 (reaction speed), mean [1, 8]: 0.59 mM/min; 1/Vo, mean [1, 9]: 1.55 min/mM; Peak area of product (4,4-dithio-bis-acid nitrobenzoic), mean [1, 9]: 198790; V0 (reaction speed), mean [1, 9]: 0.65 mM/min; 1/Vo, mean [1, 10]: 1.50 min/mM; Peak area of product (4,4-dithio-bis-acid nitrobenzoic), mean [1, 10]: 199716; V0 (reaction speed), mean [1, 10]: 0.64 mM/min; Tilt Angle of Lineweaver-Burk line ([1]; inhibitor 0.08 mM): 71.50 ± 0.03 °
CN(C)CC(O)CN1C(=O)C2C(C1=O)C1(C)C(=O)C2(C)C(c2ccccc2)=C1c1ccccc1 (stereo not shown) [Compound (IV)]	competitive	35 ± 1 µM	0.63 ± 0.02 mM/min	59.58 ± 0.04 °	0.63 ± 0.02 mM/min	0.64 ± 0.03 mM/min	65.58 ± 0.03 °	0.63 ± 0.01 mM/min	69.76 ± 0.03 °	0.64 ± 0.03 mM/min	9.85 min/mM	45817	0.10 mM/min	5.40 min/mM	84020	0.19 mM/min	3.50 min/mM	118587	0.29 mM/min	0.48 mM	Tilt Angle of Lineweaver-Burk line ([1]; inhibitor 0.02 mM): 60.09 ± 0.04 °; 1/Vo, mean [1, 5]: 2.30 min/mM; Peak area of product (4,4-dithio-bis-acid nitrobenzoic), mean [1, 5]: 157575; V0 (reaction speed), mean [1, 5]: 0.43 mM/min; 1/Vo, mean [1, 6]: 2.05 min/mM; Peak area of product (4,4-dithio-bis-acid nitrobenzoic), mean [1, 6]: 190708; V0 (reaction speed), mean [1, 6]: 0.49 mM/min; 1/Vo, mean [1, 7]: 1.80 min/mM; Peak area of product (4,4-dithio-bis-acid nitrobenzoic), mean [1, 7]: 212913; V0 (reaction speed), mean [1, 7]: 0.56 mM/min; 1/Vo, mean [1, 8]: 1.70 min/mM; Peak area of product (4,4-dithio-bis-acid nitrobenzoic), mean [1, 8]: 228126; V0 (reaction speed), mean [1, 8]: 0.59 mM/min; 1/Vo, mean [1, 9]: 1.55 min/mM; Peak area of product (4,4-dithio-bis-acid nitrobenzoic), mean [1, 9]: 230596; V0 (reaction speed), mean [1, 9]: 0.65 mM/min; 1/Vo, mean [1, 10]: 1.50 min/mM; Peak area of product (4,4-dithio-bis-acid nitrobenzoic), mean [1, 10]: 231671; V0 (reaction speed), mean [1, 10]: 0.65 mM/min; Tilt Angle of Lineweaver-Burk line ([1]; inhibitor 0.08 mM): 70.40 ± 0.03 °
